Test results from patent US6395913B1, “Recovery and purification of 3,4-epoxy-1-butene” (Eastman Chemical Company, priority 2001, dated 2002).

Tests used:
Assay type in all cases: physicochemical
[1] = Extraction affinity of water-immiscible solvents: distribution coefficients against a standard water/3-buten-1,2-diol/epoxybutene solution; conditions: room temperature; for Distribution Coefficients Epoxy-Butene: 1 part solvent : 1 part standard solution (35% water/65% diol with approx. 10 wt% epoxybutene), GC analysis, ONE PHASE = no phase separation; for Distribution Coefficients Solvent / Distribution Coefficients Water / Distribution Coefficients Diol: 1 part solvent : 1 part standard water-diol-epoxybutene solution; for Distribution Coefficients Diol: diol = 3-buten-1,2-diol
Procedure: This example compares the extraction affinity of various water-immiscible solvents for epoxybutene in the presence of aqueous absorbent mixtures, as occurs in the extraction zone of both embodiments of this invention. A standard mixture of 35% water and 65% 3-buten-1,2-diol (diol) was prepared. […] For each candidate extractant solvent specified in Table 1, one part by weight water-immiscible solvent was added to one part standard water-diol-epoxybutene solution in a separatory funnel. The mixture was vigorously shaken, allowed to settle, then separated into two liquid phases at room temperature. The aqueous and organic layers from the decantation were analyzed by gas chromatography to determine the composition of each layer. From these compositions, distribution coefficients were calculated for epoxybutene, water, diol, and the candidate extractant as follows: [formula]

[2] = Epoxybutene loss by reaction (hydrolysis) during continuous distillation; conditions: for epoxybutene present in the feed reacted to form 1,2-diol and higher diol oligomers: about 1 bar
Procedure: The distillation was conducted in a silvered, vacuum-jacketed glass Oldershaw column, equipped with a liquid-dividing distillation head, feed tray, reflux magnet, reflux timer, cooling water condenser, jacketed reboiler, pressure gage, and nitrogen purge line. The column was configured with a 15-plate stripping section, a 10-plate rectifying section, and a 500 ml jacketed flask heated by a thermostatted circulating oil bath. Feed to the column was supplied from a 5-liter jacketed vessel via a piston pump and bottoms take-off was removed via a second piston pump. The bottoms product was cooled in a small water-chilled stainless steel heat exchanger placed in line on the suction side of the pump. The distillate product flowed by gravity to a jacketed cooled receiver, which also functioned as a phase decanter. Thermocouples were provided at the reboiler, and distillation head. The continuous run lasted about 12 hours in duration with a total feed of about 1192 grams. A reflux ratio of 1:1 was employed. The column was operated at about 1 bar absolute pressure. During steady state operation the average distillate composition comprised about 16% water, 84% epoxybutene, and less than 0.01% 1,2-diol. The distillate separated into two liquid phases upon settling. The average bottoms product comprised 59.2% water, less than 0.2% epoxybutene, and 39.9% 1,2-diol. Approximately 66% of the epoxybutene present in the feed reacted to form 1,2-diol and higher diol oligomers and 93% of the unreacted epoxybutene was recovered in the distillate.
The distillation was conducted in a silvered, vacuum-jacketed glass Oldershaw column, equipped with a liquid-dividing distillation head, feed tray, reflux magnet, reflux timer, cooling water condenser, jacketed reboiler, pressure gage, and nitrogen purge line. The column was configured with a 15-plate stripping section, a 10-plate rectifying section, and a 500 ml jacketed flask heated by a thermostatted circulating oil bath. Feed to the column was supplied from a 5-liter jacketed vessel via a piston pump and bottoms take-off was removed via a second piston pump. The product removed from the base of the column was cooled in a small water-chilled stainless steel heat exchanger placed in line on the suction side of the pump. The distillate product flowed by gravity to a jacketed cooled receiver, which also functioned as a phase decanter. Thermocouples were provided at the reboiler, and distillation head. The continuous run lasted about 10 hours in duration with a total feed of about 3028 grams. A reflux ratio of 3:1 was employed. The column was operated at about 1 bar absolute pressure. During steady state operation the average distillate composition comprised about 20.4% water, 79.4% epoxybutene, and less than 0.2% 1,2-diol. […]

[3] = Rate of epoxybutene hydrolysis as a function of pH
Text: Epoxybutene reacts readily with nucleophiles such as water and alcohols to form 3-butene-1,2-diol and glycol ethers, respectively. However, the relative rate of epoxybutene reaction with nucleophiles is a function of pH. Epoxybutene, like other epoxides, undergoes both acid and base catalysis. Acid catalysis has the larger influence on the rate of reaction. For example, the rate of epoxybutene hydrolysis is over 500 times greater at pH 3 than at pH 7. At pH 11, the rate is over 17 times greater than at pH 7. Since it is desirable to minimize epoxybutene losses due to reaction with nucleophiles, EpB reactivity can be reduced by maintaining the epoxybutene-laden solution at or near a pH of about 7 to 8. This can be done by adding a basic compound to the recovery system. Generally the process gas from the reactor contains ppm levels of formic acid and other organic acids. Thus, any basic material which is capable of neutralizing organic acids may be used in the present process. […]

| Distribution Coefficients Epoxy-Butene [1] | Distribution Coefficients Solvent [1] | Distribution Coefficients Water [1] | Distribution Coefficients Diol [1] | SMILES | further results |
| --- | --- | --- | --- | --- | --- |
| ONE PHASE | – | – | – | CCC(=O)CC [3-Pentanone] | – |
| 2.09 | 215 | 0.001 | 0.000 | C1CCCCC1 [Cyclohexane] | – |
| ONE PHASE | – | – | – | C[S+](C)[O-] [Dimethylsulfoxide] | – |
| 3.49 | 34.4 | 0.022 | 0.065 | CC(C)COC(=O)C(C)C [Isobutyl isobutyrate] | – |
| 2.80 | 25.6 | 0.073 | 0.181 | CC(=O)OCCC(C)C [Isopentyl Acetate] | – |
| 2.28 | 352 | 0.001 | 0.003 | C=C(C)[C@H]1CC=C(C)CC1 [Limonene] | – |
| ONE PHASE | – | – | – | CC(=O)CC(C)C [Methyl Isobutyl Ketone] | – |
| ONE PHASE | – | – | – | CC1COC(=O)O1 (stereo not drawn) [Propylene Carbonate] | – |
| 1.06 | 1907 | 0.000 | 0.001 | CCCCCCCCCC [n-Decane] | – |
| 1.93 | 851 | 0.001 | 0.001 | CCCCCCC [n-Heptane] | – |

The remaining lines, values behind:

| SMILES | Distribution Coefficients Epoxy-Butene [1] | Distribution Coefficients Solvent [1] | Distribution Coefficients Water [1] | Distribution Coefficients Diol [1] | further results |
| --- | --- | --- | --- | --- | --- |
| c1ccc2c(c1)CCCC2 [1,2,3,4-Tetrahydronaphthalene] | 1.91 | 51.8 | 0.010 | 0.021 | – |
| Clc1ccccc1Cl [1,2-Dichlorobenzene] | 3.91 | 54.4 | 0.002 | 0.007 | – |
| CC(C)c1cccc(C(C)C)c1 [1,3-Diisopropylbenzene] | 1.92 | 329 | 0.001 | 0.004 | – |
| Cc1cccc2ccccc12 [1-Methylnaphthalene] | 3.10 | 101 | 0.002 | 0.006 | – |
| CC(C)C(=O)OCC(C)(C)C(OC(=O)C(C)C)C(C)C (stereo not drawn) [2,2,4-Trimethyl-1,3-Pentanediol Diisobutyrate] | 2.19 | 124 | 0.012 | 0.027 | – |
| CCCCC(CC)CO (stereo not drawn) [2-Ethylhexanol] | ONE PHASE | – | – | – | – |
| COCC(C)OC(C)=O (stereo not drawn) [2-Methoxy-1-Methylethyl Acetate] | ONE PHASE | – | – | – | – |
| CCCC(C)=O [2-Pentanone] | ONE PHASE | – | – | – | – |
| CCC(O)CC [3-Pentanol] | ONE PHASE | – | – | – | – |
| CCCCOC(=O)CC [Butyl Propionate] | 3.96 | 14.1 | 0.042 | 0.115 | – |
| ClC(Cl)Cl [Chloroform] | 8.73 | 8.33 | 0.024 | 0.106 | – |
| O=C1CCCCC1 [Cyclohexanone] | ONE PHASE | – | – | – | – |
| CC1=CC(=O)CC(C)(C)C1 [Isophorone] | ONE PHASE | – | – | – | – |
| COC(=O)c1ccccc1 [Methyl Benzoate] | 2.84 | 6.66 | 0.076 | 0.155 | – |
| COC(C)(C)C [Methyl t-Butyl Ether] | ONE PHASE | – | – | – | – |
| C=CC1CO1 (stereo not drawn) [epoxybutene, 3,4-epoxy-1-butene] | – | – | – | – | epoxybutene present in the feed reacted to form 1,2-diol and higher diol oligomers ([2]; Comparative Example 1: distillation from 45.4% water, 9.1% epoxybutene, 45.5% 1,2-diol): Approximately 66%; epoxybutene present in the feed reacted to form 1,2-diol and higher diol oligomers ([2]; Example 6: distillation from p-xylene extract): Less than 0.5%; epoxybutene present in the feed reacted to form 1,2-diol and higher diol oligomers ([2]; Example 7: distillation from isobutyl isobutyrate extract): Less than 0.4%; percent epoxybutene loss ([2]; Example 11: distillation of water-rich layer (96.92% water, 3.0% epoxybutene), feed pH 8 with K2CO3-H3PO4 buffer, 740 Torr): 1.5%; rate of epoxybutene hydrolysis relative to pH 7 ([3]; pH 3 versus pH 7): over 500 times; rate of epoxybutene hydrolysis relative to pH 7 ([3]; pH 11 versus pH 7): over 17 times |
| Cc1cccc(C)c1 [m-Xylene] | 2.32 | 1479 | 0.002 | 0.005 | – |
| Cc1ccc(C)cc1 [p-Xylene] | 4.34 | 368 | 0.002 | 0.005 | – |
